Assay results published in ChEMBL document CHEMBL3244272, “Folate antagonists. 15. 2,3-Diamino-6-(2-naphthylsulfonyl)quinazoline and related 2,4-diamino-6-[(phenyl and naphthyl)sulfinyl and sulfonyl]quinazolines, a potent new class of antimetabolites with phenomenal antimalarial activity” (J Med Chem, 1979).
≈ marks a conversion by molar mass, not a printed value. Calls of active or inactive are those of the source. The rule behind the calls is not given here.

Assays:
Plasmodium berghei [1] = experiment: Antimalarial activity against trophozoite-induced Plasmodium berghei infected in mouse assessed as change in mean survival time at 20 mg/kg, sc single dose after 72 hrs of infection; type: functional; conditions: route subcutaneous
Staphylococcus aureus [2] = experiment: Antibacterial activity against Staphylococcus aureus UC-76 assessed as growth inhibition; type: functional
Plasmodium berghei [3] = experiment: Antimalarial activity against trophozoite-induced Plasmodium berghei infected in mouse assessed as change in mean survival time at 40 mg/kg, sc single dose after 72 hrs of infection; type: functional; conditions: route subcutaneous
Plasmodium berghei [4] = experiment: Antimalarial activity against trophozoite-induced Plasmodium berghei infected in mouse assessed as change in mean survival time at 1.25 mg/kg, sc single dose after 72 hrs of infection; type: functional; conditions: route subcutaneous
[5] = system: Mycobacterium tuberculosis; experiment: Antibacterial activity against Mycobacterium tuberculosis H37Rv assessed as growth inhibition; type: functional
Plasmodium gallinaceum [6] = experiment: Antimalarial activity against sporozoite-induced Plasmodium gallinaceum infected in chick assessed as change in cured at 240 mg/kg, sc single dose; type: functional; conditions: route subcutaneous
Pseudomonas aeruginosa = experiment: Antibacterial activity against Pseudomonas aeruginosa 28 assessed as growth inhibition; type: functional
Plasmodium berghei [7] = experiment: Antimalarial activity against trophozoite-induced Plasmodium berghei infected in mouse assessed as change in mean survival time at 2.5 mg/kg, sc single dose after 72 hrs of infection; type: functional; conditions: route subcutaneous
Escherichia coli = experiment: Antibacterial activity against Escherichia coli Vogel assessed as growth inhibition; type: functional
Plasmodium berghei [8] = experiment: Antimalarial activity against trophozoite-induced Plasmodium berghei infected in mouse assessed as change in mean survival time at 10 mg/kg, sc single dose after 72 hrs of infection; type: functional; conditions: route subcutaneous
Enterococcus faecalis = experiment: Antibacterial activity against Streptococcus faecalis MGH-2 assessed as growth inhibition; type: functional
Plasmodium gallinaceum [9] = experiment: Antimalarial activity against sporozoite-induced Plasmodium gallinaceum infected in chick assessed as change in cured at 120 mg/kg, sc single dose; type: functional; conditions: route subcutaneous
Plasmodium berghei [10] = experiment: Antimalarial activity against trophozoite-induced Plasmodium berghei infected in sc dosed mouse assessed as minimum curative dose; type: functional
Plasmodium gallinaceum [11] = experiment: Antimalarial activity against sporozoite-induced Plasmodium gallinaceum infected in chick assessed as change in cured at 30 mg/kg, sc single dose; type: functional; conditions: route subcutaneous
Shigella sonnei = experiment: Antibacterial activity against Shigella sonnei C-10 assessed as growth inhibition; type: functional
Plasmodium berghei [12] = experiment: Antimalarial activity against trophozoite-induced Plasmodium berghei infected in mouse assessed as change in mean survival time at 5 mg/kg, sc single dose after 72 hrs of infection; type: functional; conditions: route subcutaneous
Staphylococcus aureus [13] = experiment: Antibacterial activity against Staphylococcus aureus S18713 assessed as growth inhibition; type: functional
Plasmodium gallinaceum [14] = experiment: Antimalarial activity against sporozoite-induced Plasmodium gallinaceum infected in chick assessed as change in cured at 60 mg/kg, sc single dose; type: functional; conditions: route subcutaneous
Plasmodium gallinaceum [15] = experiment: Antimalarial activity against sporozoite-induced Plasmodium gallinaceum infected in chick assessed as change in cured at 15 mg/kg, sc single dose; type: functional; conditions: route subcutaneous
Gallus gallus [16] = experiment: Toxicity in trophozoite-induced Plasmodium gallinaceum infected in chick assessed as death at 30 mg/kg, sc single dose measured within 48 hrs; type: organism-based; parameters: dose 30 mg/kg, route subcutaneous; conditions: chicken, in vivo
Plasmodium gallinaceum [17] = experiment: Antimalarial activity against trophozoite-induced Plasmodium gallinaceum infected in chick assessed as mean survival time at 60 mg/kg, sc single dose (reference value: 3.6 days); type: functional; conditions: route subcutaneous
Plasmodium gallinaceum [18] = experiment: Antimalarial activity against trophozoite-induced Plasmodium gallinaceum infected in chick assessed as mean survival time at 120 mg/kg, sc single dose (reference value: 3.6 days); type: functional; conditions: route subcutaneous
Plasmodium berghei [19] = experiment: Antimalarial activity against trophozoite-induced Plasmodium berghei infected in mouse assessed as change in mean survival time at 80 mg/kg, sc single dose after 72 hrs of infection; type: functional; conditions: route subcutaneous
Plasmodium gallinaceum [20] = experiment: Antimalarial activity against trophozoite-induced Plasmodium gallinaceum infected in chick assessed as mean survival time at 30 mg/kg, sc single dose (reference value: 3.6 days); type: functional; conditions: route subcutaneous
Plasmodium gallinaceum [21] = experiment: Antimalarial activity against trophozoite-induced Plasmodium gallinaceum infected in chick assessed as mean survival time at 2.5 mg/kg, sc single dose (reference value: 4 days); type: functional; conditions: route subcutaneous
Plasmodium gallinaceum [22] = experiment: Antimalarial activity against trophozoite-induced Plasmodium gallinaceum infected in chick assessed as mean survival time at 20 mg/kg, sc single dose (reference value: 4 days); type: functional; conditions: route subcutaneous
Plasmodium gallinaceum [23] = experiment: Antimalarial activity against trophozoite-induced Plasmodium gallinaceum infected in chick assessed as mean survival time at 5 mg/kg, sc single dose (reference value: 4 days); type: functional; conditions: route subcutaneous
Gallus gallus [24] = experiment: Toxicity in trophozoite-induced Plasmodium gallinaceum infected in chick assessed as death at 10 mg/kg, sc single dose measured within 48 hrs; type: organism-based; parameters: dose 10 mg/kg, route subcutaneous; conditions: chicken, in vivo
Gallus gallus [25] = experiment: Toxicity in trophozoite-induced Plasmodium gallinaceum infected in chick assessed as death at 5 mg/kg, sc single dose measured within 48 hrs; type: organism-based; parameters: dose 5 mg/kg, route subcutaneous; conditions: chicken, in vivo
Gallus gallus [26] = experiment: Toxicity in trophozoite-induced Plasmodium gallinaceum infected in chick assessed as death at 160 mg/kg, sc single dose measured within 48 hrs; type: organism-based; parameters: dose 160 mg/kg, route subcutaneous; conditions: chicken, in vivo
Plasmodium gallinaceum [27] = experiment: Antimalarial activity against trophozoite-induced Plasmodium gallinaceum infected in chick assessed as mean survival time at 40 mg/kg, sc single dose (reference value: 4 days); type: functional; conditions: route subcutaneous
Plasmodium gallinaceum [28] = experiment: Antimalarial activity against trophozoite-induced Plasmodium gallinaceum infected in chick assessed as cured at 2.5 mg/kg, sc single dose; type: functional, organism-based; parameters: dose 2.5 mg/kg
Gallus gallus [29] = experiment: Toxicity in trophozoite-induced Plasmodium gallinaceum infected in chick assessed as death at 20 mg/kg, sc single dose measured within 48 hrs; type: organism-based; parameters: dose 20 mg/kg, route subcutaneous; conditions: chicken, in vivo
Plasmodium gallinaceum [30] = experiment: Antimalarial activity against trophozoite-induced Plasmodium gallinaceum infected in chick assessed as mean survival time at 10 mg/kg, sc single dose (reference value: 4 days); type: functional; conditions: route subcutaneous
Gallus gallus [31] = experiment: Toxicity in trophozoite-induced Plasmodium gallinaceum infected in chick assessed as death at 40 mg/kg, sc single dose measured within 48 hrs; type: organism-based; parameters: dose 40 mg/kg, route subcutaneous; conditions: chicken, in vivo
Gallus gallus [32] = experiment: Toxicity in trophozoite-induced Plasmodium gallinaceum infected in chick assessed as death at 80 mg/kg, sc single dose measured within 48 hrs; type: organism-based; parameters: dose 80 mg/kg, route subcutaneous; conditions: chicken, in vivo
Plasmodium gallinaceum [33] = experiment: Antimalarial activity against trophozoite-induced Plasmodium gallinaceum infected in chick assessed as cured at 5 mg/kg, sc single dose; type: functional, organism-based; parameters: dose 5 mg/kg
Gallus gallus [34] = experiment: Toxicity in trophozoite-induced Plasmodium gallinaceum infected in chick assessed as death at 2.5 mg/kg, sc single dose measured within 48 hrs; type: organism-based; parameters: dose 2.5 mg/kg, route subcutaneous; conditions: chicken, in vivo

SMILES | MST (Plasmodium berghei [1]) | MIC (Staphylococcus aureus [2]) | MST (Plasmodium berghei [3]) | MST (Plasmodium berghei [4]) | MIC (Pseudomonas aeruginosa) | MST (Plasmodium berghei [7]) | MIC (Escherichia coli) | MST (Plasmodium berghei [8]) | MIC (Enterococcus faecalis) | MCD (Plasmodium berghei [10]) | MST (Plasmodium gallinaceum [11]) | MIC (Shigella sonnei) | MST (Plasmodium berghei [12]) | MIC (Staphylococcus aureus [13]) | MST (Plasmodium gallinaceum [14]) | MST (Plasmodium gallinaceum [15]) | further results
Nc1nc(N)c2cc(S(=O)(=O)c3cc(Cl)cc(Cl)c3)ccc2n1 | 9.7 days | 2.5 µg/mL (≈ 6.77 µM) | 11.3 days | 0.3 days | > 25 µg/mL | 0.7 days | > 25 µg/mL | 6.9 days | 1 µg/mL (≈ 2.71 µM) | 160 mg/kg | 6.3 days | > 25 µg/mL | 5.9 days | 10 µg/mL (≈ 27.1 µM) | 7 days | 2.2 days | MIC [5]: > 25 µg/mL; MST (Plasmodium gallinaceum [6]): 7 days; MST (Plasmodium gallinaceum [9]): 7 days
CC1(C)N=C(N)N=C(N)N1c1ccc(Cl)cc1.Cl [CHLORCYCLOGUANIL HYDROCHLORIDE] | 7.9 days | – | 13.4 days | – | – | – | – | 4.9 days | – | – | 2.3 days | – | – | – | 0.4 days | 0 days | Activity (Gallus gallus [16]): Toxic; MST (Plasmodium gallinaceum [17]): 18.7 days; MST (Plasmodium gallinaceum [18]): 22.7 days; MST (Plasmodium berghei [19]): 21.6 days; MST (Plasmodium gallinaceum [20]): 15.3 days
Nc1nc(N)c2cc([S+]([O-])c3ccc(Cl)cc3)ccc2n1 (stereo not given) | – | < 0.25 µg/mL | – | 4.2 days | > 25 µg/mL | 6 days | 1.5 µg/mL (≈ 4.71 µM) | 7.3 days | < 0.25 µg/mL | 40 mg/kg | – | 20 µg/mL (≈ 62.7 µM) | 4.8 days | < 0.25 µg/mL | – | – | MST (Plasmodium gallinaceum [21]): 4 days; MST (Plasmodium gallinaceum [22]): 23 days; MST (Plasmodium gallinaceum [23]): 15.8 days; Activity (Gallus gallus [24]): Toxic; Activity (Gallus gallus [25]): Toxic; Activity (Gallus gallus [26]): Toxic; MST (Plasmodium gallinaceum [27]): 27.5 days; Activity (Plasmodium gallinaceum [28]): Active; Activity (Gallus gallus [29]): Toxic; MST (Plasmodium gallinaceum [30]): 23 days; Activity (Gallus gallus [31]): Toxic; Activity (Gallus gallus [32]): Toxic; Activity (Plasmodium gallinaceum [33]): Active; Activity (Gallus gallus [34]): Toxic
